Earlier results in patent US20050244498A1 (priority 2001, published 2005).

Conditions: in vivo

| Structure (SMILES) | elimination half-life |
| --- | --- |
| COc1ccc(C(CN(C)C)C2(O)CCCCC2)cc1 (racemic) [venlafaxine, (R/S)-1-[2-(dimethylamino)-1-(4methoxyphenyl)ethyl]cyclohexanol] | about 4 hours |
| CN(C)CC(c1ccc(O)cc1)C1(O)CCCCC1 (centres unmarked) [active metabolite, O-desmethylvenlafaxine] | about 8 hours |
